{"source": "paper PMC10706071", "about": "“Simultaneous Improvement in the Thermostability and Catalytic Activity of Epoxidase Lsd18 for the Synthesis of Lasalocid A” (International Journal of Molecular Sciences, 2023)", "format_in_all_cases": "binding", "key": {"Lsd18 [1]": {"molecular_target": "T1, Lsd18 (Streptomyces lasalocidi, UniProt B5M9L6, T173M/S179M)", "T1 construct": "full-length gene in pCold (NdeI/EcoRI), E. coli BL21(DE3) with chaperone plasmid pG-KJE8, Ni beads and gel filtration; reductively ethylated for crystals only", "T1 sequence (B5M9L6 whole entry T173M/S179M)": "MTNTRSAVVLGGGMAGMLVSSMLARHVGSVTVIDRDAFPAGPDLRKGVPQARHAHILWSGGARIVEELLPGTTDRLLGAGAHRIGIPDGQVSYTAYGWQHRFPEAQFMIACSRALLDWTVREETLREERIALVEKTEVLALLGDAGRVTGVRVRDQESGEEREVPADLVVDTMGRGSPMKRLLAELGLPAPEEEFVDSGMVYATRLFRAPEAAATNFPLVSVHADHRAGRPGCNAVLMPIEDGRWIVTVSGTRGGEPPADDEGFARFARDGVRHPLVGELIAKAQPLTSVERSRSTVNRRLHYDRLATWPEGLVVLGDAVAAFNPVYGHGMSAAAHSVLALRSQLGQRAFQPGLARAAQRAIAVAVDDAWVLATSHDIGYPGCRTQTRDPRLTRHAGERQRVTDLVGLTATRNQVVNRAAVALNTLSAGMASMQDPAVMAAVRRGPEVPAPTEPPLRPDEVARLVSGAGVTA", "assay": "X-ray crystal structure ([…] Å); FAD content by absorbance at […] nm", "conditions": "co-purified FAD; reductively ethylated protein for crystals"}, "Lsd18 [2]": {"molecular_target": "T2, Lsd18 (Streptomyces lasalocidi, UniProt B5M9L6, T173M)", "T2 construct": "full-length gene in pCold (NdeI/EcoRI), E. coli BL21(DE3) with chaperone plasmid pG-KJE8, Ni beads and gel filtration; reductively ethylated for crystals only", "T2 sequence (B5M9L6 whole entry T173M)": "as the sequence (B5M9L6 whole entry T173M/S179M) above, with M179S counted along it", "assay": "bound FAD released by heating, absorbance at […] nm", "conditions": "co-purified FAD; 20 mM Tris pH 8.5, 150 mM NaCl"}, "Lsd18 [3]": {"molecular_target": "T3, Lsd18 (Streptomyces lasalocidi, UniProt B5M9L6, S179M)", "T3 construct": "full-length gene in pCold (NdeI/EcoRI), E. coli BL21(DE3) with chaperone plasmid pG-KJE8, Ni beads and gel filtration; reductively ethylated for crystals only", "T3 sequence (B5M9L6 whole entry S179M)": "as the sequence (B5M9L6 whole entry T173M/S179M) above, with M173T counted along it", "assay": "bound FAD released by heating, absorbance at […] nm", "conditions": "co-purified FAD; 20 mM Tris pH 8.5, 150 mM NaCl"}, "Lsd18 [4]": {"molecular_target": "T4, Lsd18 (Streptomyces lasalocidi, UniProt B5M9L6)", "T4 construct": "full-length gene in pCold (NdeI/EcoRI), E. coli BL21(DE3) with chaperone plasmid pG-KJE8, Ni beads and gel filtration; reductively ethylated for crystals only", "T4 sequence (B5M9L6 1-472)": "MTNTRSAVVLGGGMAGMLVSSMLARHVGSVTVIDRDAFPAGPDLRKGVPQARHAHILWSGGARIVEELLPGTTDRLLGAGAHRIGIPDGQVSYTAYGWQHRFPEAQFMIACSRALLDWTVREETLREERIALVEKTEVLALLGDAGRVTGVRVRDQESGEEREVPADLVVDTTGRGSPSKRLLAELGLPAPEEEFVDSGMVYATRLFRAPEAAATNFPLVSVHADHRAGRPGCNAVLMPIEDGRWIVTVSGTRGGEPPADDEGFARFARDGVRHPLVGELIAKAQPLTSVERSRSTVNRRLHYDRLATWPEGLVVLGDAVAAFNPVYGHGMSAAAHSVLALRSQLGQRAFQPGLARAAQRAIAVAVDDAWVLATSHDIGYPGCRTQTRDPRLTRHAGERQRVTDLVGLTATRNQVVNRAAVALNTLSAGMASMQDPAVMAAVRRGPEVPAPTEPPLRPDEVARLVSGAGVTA", "assay": "bound FAD released by heating ([…] °C, […] min), absorbance at […] nm", "conditions": "co-purified FAD; 20 mM Tris pH 8.5, 150 mM NaCl"}}}
{"molecule": "Cc1cc2nc3c(=O)[nH]c(=O)nc-3n(C[C@H](O)[C@H](O)[C@H](O)COP(=O)(O)OP(=O)(O)OC[C@H]3O[C@@H](n4cnc5c(N)ncnc54)[C@H](O)[C@@H]3O)c2cc1C", "note": "[FAD]", "values": [{"measurement": "X-ray crystal structure (3.76 Å); FAD content by absorbance at 451 nm", "setting": "Lsd18 [1]", "value": "M189 forms a hydrogen bond with the cofactor FAD that could stabilize the binding"}, {"measurement": "FAD content", "setting": "Lsd18 [2]", "value": "the FAD content in the mutants Lsd18-T189M, Lsd18-S195M, Lsd18-T189M-S195M increased"}, {"measurement": "FAD content", "setting": "Lsd18 [3]", "value": "the FAD content in the mutants Lsd18-T189M, Lsd18-S195M, Lsd18-T189M-S195M increased"}, {"measurement": "FAD content", "setting": "Lsd18 [4]", "value": "the yellower the color of Lsd18 (attributed to bound FAD), the more stable it was"}]}
